The text below walks through data of patent EP2408450B1, “ALPHA-(N-SULFONAMIDO)ACETAMIDE COMPOUND AS AN INHIBITOR OF BETA AMYLOID PEPTIDE PRODUCTION” (Bristol-Myers Squibb Company, priority 2009, dated 2010).

For data set [1], the target named is T1, human pregnane-X receptor (Homo sapiens, UniProt O75469).
T1 construct: expressed in transfected cells; host or cells: HepG2 cells, transiently transfected with PXR-pcDNA3 and CYP3A-Luc
T1 sequence (O75469 1-434): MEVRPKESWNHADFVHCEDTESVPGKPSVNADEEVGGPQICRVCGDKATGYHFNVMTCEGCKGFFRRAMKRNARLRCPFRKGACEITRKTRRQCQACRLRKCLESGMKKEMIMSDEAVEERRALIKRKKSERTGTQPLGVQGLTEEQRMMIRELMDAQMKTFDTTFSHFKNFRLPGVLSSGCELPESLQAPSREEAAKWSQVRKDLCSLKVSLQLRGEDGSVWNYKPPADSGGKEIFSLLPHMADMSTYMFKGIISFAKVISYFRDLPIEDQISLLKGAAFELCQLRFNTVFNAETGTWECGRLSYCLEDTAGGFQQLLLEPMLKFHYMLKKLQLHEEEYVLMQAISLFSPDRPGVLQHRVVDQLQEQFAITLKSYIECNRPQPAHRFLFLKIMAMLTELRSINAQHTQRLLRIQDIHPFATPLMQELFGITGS
The data set is described as follows: PXR transactivation assay (CYP3A-Luc reporter in HepG2 cells). The format is cell-based. To be noted: hPXR transactivation assay. From the text:
Pregnane X receptor (PXR) is a nuclear hormone receptor principally responsible for the induction of cytochrome P450 (CYP) 3A4, which plays a major role in metabolizing many clinically prescribed drugs. It is well known that the induction of CYP3A4 can cause either drug-drug interaction by increasing the metabolic clearance of co-administered CYP3A4 substrates (Bertilsson, G. et al., Proc. Nat. Acad. Sci. USA, 95:12208-12213 (1998); Lehmann, J.M. et al., J. Clin. Invest., 102:1016-1023 (1998)) or can cause loss of drug exposure due to autoinduction. Characterizing the induction potential of discovery or development drug candidates has become an important screen throughout the pharmaceutical industry. […]
Cells in each flask are washed with PBS and 4 mL of Trypsin-EDTA (0.25%) is added and incubated for one minute at room temperature. […] Cells are then counted and diluted in media to 3.0 x 10^5 cells/mL. […] After fifteen minutes, plates are read on a Viewlux (Perkin-Elmer) plate reader.
Rifampicin (10 µM), a well known agonist of PXR, is included in each plate as an internal standard and positive control. The data was then expressed as percent activation (%Act), where the total signal is the signal from the 10 µM rifampicin and the blank signal is that from the DMSO vehicle. %Act = (Compound signal-Blank signal)/(Toal signal-Blank signal) × 100% [formula] […]

The next data set has as its system Aβ42. The data set is described as follows: Inhibition of Aβ42 formation in cultured H4 APP751 SWE cells. The format is cell-based. To be noted: H4-8Sw cells, mean ± SD, n = 45.
Data set [2] in a line: Metabolic stability in liver microsomes (mouse). The format is in vitro ADME. Here is the method: Mouse, rat, dog, human, and cynomolgus monkey liver microsomes were obtained from BD Gentest (Woburn, MA). The lot numbers were 13 (mouse), 8 (rat), 8 (dog), 19 and 26 (human), and 3 (cynomolgus monkey). […] The reaction, conducted in triplicate, was initiated by the addition of NADPH followed by incubation at 37°C for 50 minutes. Aliquots of samples (0.25 mL) were taken at 0, 5, 10, 20, 30, 40 and 50 minutes and the reaction was quenched by the addition of 3 volumes of acetonitrile. […] The reaction, conducted in triplicate, was initiated by the addition of NADPH followed by incubation at 37 °C for 50 minutes. Aliquots of samples (0.25 mL) were taken at 0, 5, 10, 20, 30, 40 and 50 minutes and the reaction was quenched by the addition of 3 volumes of acetonitrile. […] The reaction, conducted in duplicate, was initiated by the addition of NADPH followed by incubation at 37°C for 40 minutes. Aliquots of samples (0.25 mL) were taken at 0, 5, 10, 15, 20, 30 and 40 minutes and the reaction was quenched by the addition of 3 volumes of acetonitrile. For all studies, samples were analyzed immediately by an LC/MS method.
Background: Microsomes from liver hold many membrane-bound enzymes, among them those of drug oxidation.

Another data set has as its system CYP3A4 mRNA. Conditions: human, 3 days, 20 µM.

Method for Aβ42: Cells were maintained in log phase through twice weekly passage at a 1:20 dilution. […] Following incubation for 19 hours in 5% CO2 at 37°C, plates were briefly centrifuged (1000 rpm, 5 min). […] Antibody cocktails were freshly prepared by dilution into 40 mM Tris-HCl (pH 7.4) with 0.2% BSA and added to assay plates. […] Assay plates containing antibodies were sealed with aluminum foil and incubated overnight at 4°C. Signal was determined using a Viewlux counter (Perkin Elmer) and IC50 values determined using curve fitting in CurveMaster (Excel Fit based).
Method for CYP3A4 mRNA: [[2-fluoro-4-(1,2,4-oxadiazol-3-yl)phenyl]methyl]amino]-5,5,5-trifluoropentanamide to induce CYP3A4 mRNA was evaluated in vitro using the Fa2N-4 cell line. The Fa2N-4 cell is an immortalized human hepatocyte line that was created using the Simian virus 40 (SV40) T antigen as the immortalizing gene, while retaining basal expression and inducibility of several CYP isoforms, including CYP3A4. Fa2N-4 cells and MFE Support Media F were provided by XenoTech, LLC (Lenexa, Kansas).
Upon the receipt of the cells, the media were changed and the cells maintained overnight in a humidified, CO2-supplied incubator. After this adaptation period, the cells were examined under a light microscope and a determination was made as to whether the cells were morphologically normal and suitable for use. During the treatment period, the cells were visually inspected on a daily basis; cellular morphology, confluency, and signs of toxicity due to the test article were documented as necessary. […] Rifampicin (10 µM), a prototypical CYP3A4 inducer, was used as the positive control. Fa2N-4 cells were exposed to the test articles for a total of 3 days. The culture medium was replaced daily with fresh medium containing the test articles. After a total of ~72 hours of exposure, medium was aspirated and the cells washed once with warm phosphate buffered saline solution before adding the cell lysis buffer (Qiagen, Valencia, CA).

With `NC(=O)[C@@H](CCC(F)(F)F)N(Cc1ccc(-c2ncon2)cc1F)S(=O)(=O)c1ccc(Cl)cc1` [(2R)-2-[[(4-chlorophenyl)sulfonyl][[2-fluoro-4-(1,2,4-oxadiazol-3-yl)phenyl]methyl]amino]-5,5,5-trifluoropentanamide], in data set [1], the “EC20A (20% of the Rifampicin response at 10 µM)” value amounted to 6900 nM and the “EC60A (60% of the Rifampicin response at 10 µM)” value was “greater than 16.7 µM”. Also, the IC50 (in general, the concentration that inhibits the measured activity by half) in the data set with Aβ42 amounted to 0.27 ± 0.12 nM. Also, in data set [2] (mouse microsomes, NADPH-fortified, 1 µM), the “rate of in vitro metabolism” value is 690 pmol/min/mg protein. Besides, the “predicted in vivo (serum) clearance” value in data set [2] (mouse, scaled from liver microsome rate) is on record as “approximately 87 mL/min/kg”. Also, in the data set with CYP3A4 mRNA, the “magnitude of induction as % of the induction response caused by rifampicin” value was 22%.
